Test results from PMC5902632 (2018).
Numbered stars: 1 amine (or outer) side, 2 acyl side, 3 side chain; on linkers, the order of the positions; unused ones are H or OH. Bridge positions count the residues as written; N and C are the ends. Square brackets hold non-standard residues; d marks the D form. Peptide text beside a SMILES is read from it. I, II: the chains in the order shown. Actinocin(9to1) = Cc1c2oc3c(C)ccc(C(=O)[*:1])c3nc-2c(C(=O)[*:2])c(N)c1=O; NMeV = CN[C@H](C(=O)O)C(C)C; Sar = CNCC(=O)O

Columns and labels:
[1] = system: AcDNA (DNA, duplex) AGATATGCATATCT; assay: NMR (HSQC, NOESY, relaxation dispersion); conditions: 125 mM NaCl; 15 mM sodium phosphate, 0.1 mM EDTA, pH 5.3 or 6.8, 8% D2O; two orientations of the chromophore
[2] = system: E12DNA-HG (DNA, duplex) ACGCACGT/ACGTGCGT; assay: NMR (2D NOESY and HSQC); conditions: 125 mM NaCl; 15 mM sodium phosphate, 0.1 mM EDTA, pH 5.3
[3] = system: E12DNA-WC (DNA, duplex) ACACGTAT/ATACGTGT; assay: NMR (2D HSQC chemical shift perturbation); conditions: 125 mM NaCl; 15 mM sodium phosphate, 0.1 mM EDTA, pH 5.3 or 6.8; room temperature
[4] = system: E12DNA (DNA, duplex) ACACGTACGTGT; assay: NMR (HSQC chemical shift perturbation, relaxation dispersion); conditions: 125 mM NaCl; 15 mM sodium phosphate, 0.1 mM EDTA, pH 5.3 or 6.8, 8% D2O; slow exchange

Row | binding [3] | binding [4] | SMILES | binding [1] | binding [2]
1 |  |  | Cc1c2oc3c(C)ccc(C(=O)N[C@@H]4C(=O)N[C@H](C(C)C)C(=O)N5CCC[C@H]5C(=O)N(C)CC(=O)N(C)[C@@H](C(C)C)C(=O)O[C@@H]4C)c3nc-2c(C(=O)N[C@@H]2C(=O)N[C@H](C(C)C)C(=O)N3CCC[C@H]3C(=O)N(C)CC(=O)N(C)[C@@H](C(C)C)C(=O)O[C@@H]2C)c(N)c1=O (I: T[dV]P[Sar][NMeV] / II: T[dV]P[Sar][NMeV]; ester I:1-I:C, II:1-II:C; linker I:N-II:N via Actinocin(9to1)) | yes | 
2 | yes | yes | CSC1SC[C@H]2C(=O)N(C)[C@@H](C(C)C)C(=O)OC[C@@H](NC(=O)c3cnc4ccccc4n3)C(=O)N[C@@H](C)C(=O)N(C)[C@@H]1C(=O)N(C)[C@@H](C(C)C)C(=O)OC[C@@H](NC(=O)c1cnc3ccccc3n1)C(=O)N[C@@H](C)C(=O)N2C (stereo partly shown) |  | yes
